Results as given in US20230027066A1 (Urovant Sciences GmbH, priority 2019, published 2023).

Tested on: men and women with overactive bladder
Assay: Phase 3 study of vibegron 75 mg vs placebo and tolterodine ER 4 mg, 12 weeks, efficacy (voiding and urine volume diary)
Format: in vivo, human
Conditions: for Daily Urgency Episodes: Vibegron - Placebo LS Means Difference: 75 mg; for Daily Urgency Episodes: Reduction from Baseline at Week 12, LS Mean: vibegron 75 mg, tolterodine ER 4 mg; for Patients with 100% Reduction in UUI from Baseline to Week 12, Unadjusted n (%) / Patients with at Least 75% Reduction in UUI from Baseline to Week 12, Unadjusted n (%) / Patients with 100% Reduction in UUI from Baseline to Week 12, Adjusted n (%) / Patients with at Least 75% Reduction in UUI from Baseline to Week 12, Adjusted n (%): FAS-I; for Patients with 100% Reduction in UUI from Baseline to Week 12, Adjusted n (%) / Patients with at Least 75% Reduction in UUI from Baseline to Week 12, Adjusted n (%): MI for missing values; for 75% UUI responders, Active-Placebo CMH Difference / 100% UUI responders, Active-Placebo CMH Difference: stratified by sex; for Urgency, Change from Baseline LS Mean / Urgency, LS Mean Difference active - Placebo: baseline to Week 12
Experimental: Enrollment of patients included individuals with OAB Wet (those with UUI, the involuntary loss of urine accompanied by urgency) and OAB Dry (those without UUI). A total of 1,518 patients were randomized across 215 study sites into one of three groups for a 12-week treatment period.
The study consisted of a Screening Period (1 to 5 weeks), a single-blind Run-in Period (2 weeks), a randomized double-blind Treatment Period (12 weeks), and a Follow-up Period (4 weeks).
Tolterodine ER 4 mg was the active control. […] Between the Baseline and Week 12 Visits, patients had study assessments at Week 4 and Week 8.
The Patient Voiding Diary was used by participants (via the eDiary or paper Diary) to record the frequency of daily OAB symptoms including all micturitions, urgency, incontinence, and main reason for incontinence by selecting the respective box for each symptom occurring during the course of a given day and night.
Urine volume data were collected separately by patients using the Urine Volume component of the eDiary, or the paper Urine Volume Chart. The Urine Volume Chart is a tool used in clinical practice and clinical investigation to assess voiding functions over a 24-hour period and is regarded as a useful instrument in the investigation of patients with voiding symptoms. Urine volume may be collected during any one (1) of the 7 Diary Days prior to the visit, and it should be recorded for ˜24 hours starting from the time the patient gets up for the day and continues until the time the patient gets up for the day on the next day.
For the purpose of this study, the number of micturitions was defined as the number of times a patient has voided in the toilet as indicated on the Patient Voiding Diary. Average daily micturitions were calculated using the daily entries in the Patient Voiding Diary, which was completed over the 7 days prior to each study visit. Average daily number of micturitions were calculated as the total number of micturitions that occurred on a Complete Diary Day divided by the number of Complete Diary Days in the Patient Voiding Diary. A complete diary day required confirmation by the patient in the Patient Voiding Diary that all voids and leakages had been recorded for the diary day. Baseline was defined as the average number of micturitions occurring during the last evaluable diary prior to the Baseline Visit.
The number of UUI episodes was defined as the number of times a patient had checked “urge” as the reason for accidental urine leakage. Average daily UUI episodes at each study visit were calculated in the same manner as described above for the micturition endpoint. The UUI endpoint were analyzed using only OAB Wet patients.
For the analysis of the co-primary endpoints (change from baseline in average number of daily micturitions at Week 12 and change from baseline in average number of daily urge urinary incontinence episodes at Week 12, and placebo adjustment of each), a mixed model for repeated measure (MMRM) with restricted maximum likelihood estimation was used. This model corrects for dropout and accounts for the fact that measurements taken on the same patient over time tend to be correlated by using all available information on patients within the same covariate set to derive an estimate of the treatment effect for a dropout-free population. The analysis model for each efficacy endpoint includes terms for treatment, visit, OAB Type (Wet vs Dry), Sex (Female vs Male), Region (US vs Rest of World), baseline score, and interaction of visit by treatment.
Primary inferences were drawn from treatment differences for the changes from baseline derived from the MMRM models at Week 12. As part of secondary objectives, the treatment differences for each post baseline visit were also derived using the same MMRM model. […]

[1] = 50% Total Incontinence Responders, Week 2
[2] = 50% Total Incontinence Responders, Week 4
[3] = 50% Total Incontinence Responders, Week 8
[4] = 50% Total Incontinence Responders, Week 12
[5] = Dry population, baseline to Week 2

With `O=C(Nc1ccc(C[C@@H]2CC[C@H]([C@H](O)c3ccccc3)N2)cc1)[C@@H]1CCc2nccc(=O)n21` [Vibegron, (6S)-N-[4-[[(2S,5R)−5-[(R)-hydroxy(phenyl)methyl]pyrrolidin−2-yl]methyl]phenyl]−4-oxo−7,8-dihydro−6H-pyrrolo[1,2-a]pyrimidine−6-carboxamide] the “Average Volume Voided per Micturition, Mean (SD)” value [1] was 173.8 (76.89), the “Average daily number of urgency episodes, Mean (SD)” value (“Average daily number … (SD)” below) [1] was 5.62 (3.792) and the “Change from Baseline in Average Daily Number of Urgency Episodes, LS Mean (SE)” value (from here on “Change from Baseline … (SE)”) [1] was −2.1 (0.15). For the same molecule, the “Change from Baseline in Average Volume Voided per Micturition, LS Mean” value (from here on “Change from Baseline … per Micturition, LS Mean”) [1] was 16.1 (3.79), the “Change from baseline in Percent Dry Diary Days, LS Mean” value [1] was 29.0 (2.11) Percent and the “Percent Dry Diary Days, Mean (SD)” value [1] was 34.64 (36.322) Percent. The “Average Volume Voided per Micturition, Mean (SD)” value [2] was 176.5 (81.31), the “Average daily number … (SD)” value [2] was 5.01 (3.889) and the “Change from Baseline … (SE)” value [2] was −2.6 (0.16). The “Change from Baseline … per Micturition, LS Mean” value [2] was 18.0 (3.99), the “Change from baseline in Percent Dry Diary Days, LS Mean” value [2] was 37.8 (2.41) Percent and the “Percent Dry Diary Days, Mean (SD)” value [2] was 43.31 (41.468) Percent. For the same molecule, the “Average Volume Voided per Micturition, Mean (SD)” value [3] was 182.0 (84.53), the “Average daily number … (SD)” value [3] was 4.25 (3.833) and the “Change from Baseline … (SE)” value [3] was −3.4 (0.19). The “Change from Baseline … per Micturition, LS Mean” value [3] was 24.2 (4.12), the “Change from baseline in Percent Dry Diary Days, LS Mean” value [3] was 47.4 (2.45) Percent and the “Percent Dry Diary Days, Mean (SD)” value [3] was 53.01 (39.898) Percent. For the same molecule, the “Average Volume Voided per Micturition, Mean (SD)” value [4] was “(186.2 (84.24)”, the “Average daily number … (SD)” value [4] was 3.67 (3.481) and the “Change from Baseline … (SE)” value [4] was −4.0 (0.20). For the same molecule, the “Change from Baseline … per Micturition, LS Mean” value [4] was 27.6 (4.24), the “Change from baseline in Percent Dry Diary Days, LS Mean” value [4] was 55.5 (2.37) Percent and the “Percent Dry Diary Days, Mean (SD)” value [4] was 61.0 (37.857) Percent. For the same molecule, the “Average Volume Voided per Micturition, Mean (SD)” value (75% UUI Responders, Week 2) was 174.3 (77.29), the “Average daily number … (SD)” value (75% UUI Responders, Week 2) was 5.40 (3.762) and the “Change from Baseline … per Micturition, LS Mean” value (75% UUI Responders, Week 2) was 17.7 (4.28). The “Change from baseline in average daily number of urgency episodes, LS Mean” value (75% UUI Responders, Week 2) was −2.2 (0.17), the “Average Volume Voided per Micturition, Mean (SD)” value (75% UUI Responders, Week 4) was 178.1 (82.51) and the “Average daily number … (SD)” value (75% UUI Responders, Week 4) was 4.72 (3.838). The “Change from Baseline … per Micturition, LS Mean” value (75% UUI Responders, Week 4) was 20.7 (4.52), the “Change from baseline in average daily number of urgency episodes, LS Mean” value (75% UUI Responders, Week 4) was −2.7 (0.19) and the “Average Volume Voided per Micturition, Mean (SD)” value (75% UUI Responders, Week 8) was 184.2 (87.70). For the same molecule, the “Average daily number … (SD)” value (75% UUI Responders, Week 8) was 3.95 (3.742), the “Change from Baseline … per Micturition, LS Mean” value (75% UUI Responders, Week 8) was 27.2 (4.67) and the “Change from baseline in average daily number of urgency episodes, LS Mean” value (75% UUI Responders, Week 8) was −3.5 (0.21). The “Average Volume Voided per Micturition, Mean (SD)” value (75% UUI Responders, Week 12) was 185.0 (87.89), the “Average daily number … (SD)” value (75% UUI Responders, Week 12) was 3.31 (3.433) and the “Change from Baseline … per Micturition, LS Mean” value (75% UUI Responders, Week 12) was 26.9 (4.87). The “Change from baseline in average daily number of urgency episodes, LS Mean” value (75% UUI Responders, Week 12) was −4.2 (0.23), the “Daily Urgency Episodes: Vibegron - Placebo LS Means Difference” value (Age ≥65 years, Week 12) was −1.0 and the “Daily Urgency Episodes: Reduction from Baseline at Week 12, LS Mean” value (from here on “Daily Urgency Episodes: Reduction”) (Age ≥65 years) was −2.7. The “Daily Urgency Episodes: Vibegron - Placebo LS Means Difference” value (Age ≥75 years, Week 12) was −1.7, the “Daily Urgency Episodes: Reduction” value (Age ≥75 years) was −2.6 and the “Daily Urgency Episodes: Vibegron - Placebo LS Means Difference” value (All patients, Week 12) was −0.7. For the same molecule, the “Daily Urgency Episodes: Reduction” value (All patients) was −2.7, the “Patients with 100% Reduction in UUI from Baseline to Week 12, Unadjusted n (%)” value (Baseline Number of UUI <3) was 79 (35.4) n (%) and the “Patients with at Least 75% Reduction in UUI from Baseline to Week 12, Unadjusted n (%)” value (Baseline Number of UUI <3) was 112 (50.2) n (%). The “Patients with 100% Reduction in UUI from Baseline to Week 12, Adjusted n (%)” value (Baseline Number of UUI <3) was 68 (30.4) n (%), the “Patients with at Least 75% Reduction in UUI from Baseline to Week 12, Adjusted n (%)” value (Baseline Number of UUI <3) was 101 (45.5) n (%) and the “75% UUI responders, Active-Placebo CMH Difference” value (Baseline Number of UUI <3) was 7.1. The “100% UUI responders, Active-Placebo CMH Difference” value (Baseline Number of UUI <3) was 2.8, the “Patients with 100% Reduction in UUI from Baseline to Week 12, Unadjusted n (%)” value (Baseline Number of UUI ≥3) was 37 (20.6) n (%) and the “Patients with at Least 75% Reduction in UUI from Baseline to Week 12, Unadjusted n (%)” value (Baseline Number of UUI ≥3) was 99 (55.0) n (%). For the same molecule, the “Patients with 100% Reduction in UUI from Baseline to Week 12, Adjusted n (%)” value (Baseline Number of UUI ≥3) was 34 (19.1) n (%), the “Patients with at Least 75% Reduction in UUI from Baseline to Week 12, Adjusted n (%)” value (Baseline Number of UUI ≥3) was 98 (54.4) n (%) and the “75% UUI responders, Active-Placebo CMH Difference” value (Baseline Number of UUI ≥3) was 29.4. For the same molecule, the “100% UUI responders, Active-Placebo CMH Difference” value (Baseline Number of UUI ≥3) was 12.3, the “Urgency, Change from Baseline LS Mean” value (Dry population, Age <65) was −2.9 (64) and the “Urgency, LS Mean Difference active - Placebo” value (Dry population, Age <65) was −1.4. The “Urgency, Change from Baseline LS Mean” value (Dry population, Age ≥65) was −2.2 (45), the “Urgency, LS Mean Difference active - Placebo” value (Dry population, Age ≥65) was −0.5 and the “Average daily number … (SD)” value (Dry population, Week 2) was 6.98 (4.732). The “Change from baseline in average daily number of urgency episodes, LS Mean” value (Dry population, Week 2) was −1.5 (0.24), the “Urgency episodes, Active - Placebo LS Mean Difference” value (Dry population, Week 2) was −0.8 (0.35) and the “Average daily number … (SD)” value (Dry population, Week 4) was 6.80 (4.667). The “Change from baseline in average daily number of urgency episodes, LS Mean” value (Dry population, Week 4) was −1.8 (0.26), the “Urgency episodes, Active - Placebo LS Mean Difference” value (Dry population, Week 4) was −0.9 (0.37) and the “Average daily number … (SD)” value (Dry population, Week 8) was 6.39 (4.627). The “Change from baseline in average daily number of urgency episodes, LS Mean” value (Dry population, Week 8) was −2.2 (0.30), the “Urgency episodes, Active - Placebo LS Mean Difference” value (Dry population, Week 8) was −1.0 (0.44) and the “Average daily number … (SD)” value (Dry population, Week 12) was 6.17 (4.958). For the same molecule, the “Change from baseline in average daily number of urgency episodes, LS Mean” value (Dry population, Week 12) was −2.6 (0.33), the “Urgency episodes, Active - Placebo LS Mean Difference” value (Dry population, Week 12) was −1.0 (0.47) and the “Patients with at Least 50% Reduction in Urgency Episodes, Adjusted (%)” value [5] was 18.1%. The “Patients with at Least 50% Reduction in Urgency Episodes, Adjusted n” value [5] was 22, the “Patients with at Least 50% Reduction in Urgency Episodes, Unadjusted (%)” value [5] was 18.7% and the “Patients with at Least 50% Reduction in Urgency Episodes, Unadjusted n” value [5] was 23. For the same molecule, the “Urgency 50% responders, Active - Placebo CMH Difference” value [5] was 4.7 and the “Patients with at Least 50% Reduction in Urgency Episodes, Adjusted (%)” value (Dry population, baseline to Week 4) was 22.4%.
